ChEMBL document CHEMBL5614390, “Novel EGFR inhibitors against resistant L858R/T790M/C797S mutant for intervention of non-small cell lung cancer” (Eur J Med Chem, 2024)
pIC50: −log10 of the molar value. Calls of active or inactive are those of the source. The calls are words filed in the database; no cut-off is given here.

Tests used:
PC-9 [1] = experiment: Antitumor activity against human PC-9 cells expressing EGFR L858R/T790M/C797S mutant xenografted in BALB/c nude mouse assessed as tumor growth inhibition at 20 mg/kg, po administered for 18 days relative to control; assay type: functional; settings: PC-9, 432 h, time 18 day, read-out: TGI
PC-9 [2] = experiment: Induction of cell cycle arrest in human PC-9 cells expressing EGFR L858R/T790M/C797S mutant assessed as S phase cells at 0.1 to 1 uM incubated for 24 hrs by PI staining based flow cytometric analysis (reference value: 34.5 +/- 3.3 %); assay type: functional; settings: dose 0.1-1 µM
PC-9 [3] = experiment: Antitumor activity against human PC-9 cells expressing EGFR L858R/T790M/C797S mutant xenografted in BALB/c nude mouse assessed as average tumor weight at 40 mg/kg, po administered for 18 days (reference value: 0.83 g); assay type: functional; settings: time 18 day
PC-9 [4] = experiment: Induction of apoptosis in human PC-9 cells expressing EGFR Del19/T790M/C797S mutant assessed as late apoptotic cells at 0.5 uM incubated for 48 hrs by Annexin V-FITC/PI staining based flow cytometric analysis (reference value: 0.040 %); assay type: functional
MCF7 = experiment: cells; settings: Homo sapiens, MCF7, 72 h
Description: Cytotoxicity against human MCF7 cells assessed as inhibition of cell proliferation incubated for 72 hrs by CCK8 assay

PC-9 [5] = experiment: Induction of apoptosis in human PC-9 cells expressing EGFR Del19/T790M/C797S mutant assessed as early apoptotic cells at 0.1 uM incubated for 48 hrs by Annexin V-FITC/PI staining based flow cytometric analysis (reference value: 0.050 %); assay type: functional
PC-9 [6] = experiment: Induction of apoptosis in human PC-9 cells expressing EGFR L858R/T790M/C797S mutant assessed as viable cells at 0.1 uM incubated for 48 hrs by Annexin V-FITC/PI staining based flow cytometric analysis (reference value: 98.9 %); assay type: functional; settings: read-out: Activity
PC-9 [7] = experiment: Induction of apoptosis in human PC-9 cells expressing EGFR L858R/T790M/C797S mutant assessed as necrotic cells at 1 uM incubated for 48 hrs by Annexin V-FITC/PI staining based flow cytometric analysis (reference value: 0.540 %); assay type: functional
PC-9 [8] = experiment: cells; settings: Homo sapiens, PC-9, 72 h
Description: Cytotoxicity against human PC-9 cells expressing EGFR Del19/T790M/C797S mutant assessed as inhibition of cell proliferation incubated for 72 hrs by CCK8 assay

[9] = Metabolic stability in human liver microsomes assessed as intrinsic clearance at 10 uM preincubated for 5 mins followed by NADPH addition and measured upto 60 mins by HPLC analysis; assay type: ADME, Microsome; settings: time < 65 min, read-out: CLH
PC-9 [10] = experiment: Induction of apoptosis in human PC-9 cells expressing EGFR L858R/T790M/C797S mutant assessed as necrotic cells at 0.5 uM incubated for 48 hrs by Annexin V-FITC/PI staining based flow cytometric analysis (reference value: 0.540 %); assay type: functional
HCC827 = experiment: cells; settings: Homo sapiens, HCC827, 72 h
Description: Cytotoxicity against human HCC827 cells expressing EGFR Del19 mutant assessed as inhibition of cell proliferation incubated for 72 hrs by CCK8 assay

PC-9 [11] = experiment: Induction of apoptosis in human PC-9 cells expressing EGFR L858R/T790M/C797S mutant assessed as late apoptotic cells at 1 uM incubated for 48 hrs by Annexin V-FITC/PI staining based flow cytometric analysis (reference value: 0.360 %); assay type: functional
PC-9 [12] = experiment: cells; settings: Homo sapiens, PC-9, 72 h; remark: listed apart in the source
Description: Cytotoxicity against human PC-9 cells expressing EGFR Del19 mutant assessed as inhibition of cell proliferation incubated for 72 hrs by CCK8 assay

PC-9 [13] = experiment: Induction of apoptosis in human PC-9 cells expressing EGFR L858R/T790M/C797S mutant assessed as necrotic cells at 0.1 uM incubated for 48 hrs by Annexin V-FITC/PI staining based flow cytometric analysis (reference value: 0.540 %); assay type: functional
[14] = Toxicity in BALB/c nude mouse xenografted with human PC-9 cells expressing EGFR L858R/T790M/C797S mutant assessed as body weight loss at 10 to 40 mg/kg, po administered for 18 days; assay type: organism-based; settings: in vivo, 432 h, dose 10-40 mg/kg, time 18 day
PC-9 [15] = experiment: Induction of cell cycle arrest in human PC-9 cells expressing EGFR Del19/T790M/C797S mutant assessed as accumulation of cells at G0/G1 phase at low dose incubated for 24 hrs by PI staining based flow cytometric analysis; assay type: functional
PC-9 [16] = experiment: Induction of apoptosis in human PC-9 cells expressing EGFR Del19/T790M/C797S mutant assessed as viable cells at 1 uM incubated for 48 hrs by Annexin V-FITC/PI staining based flow cytometric analysis (reference value: 99.8 %); assay type: functional; settings: Homo sapiens, PC-9, read-out: Activity
[17] = Metabolic stability in rabbit liver microsomes assessed as intrinsic clearance at 10 uM preincubated for 5 mins followed by NADPH addition and measured upto 60 mins by HPLC analysis; assay type: ADME, Oryctolagus cuniculus, Microsome; settings: time < 65 min, read-out: CLH
PC-9 [18] = experiment: Antitumor activity against human PC-9 cells expressing EGFR L858R/T790M/C797S mutant xenografted in BALB/c nude mouse assessed as tumor growth inhibition at 10 mg/kg, po administered for 18 days relative to control; assay type: functional; settings: PC-9, 432 h, time 18 day, read-out: TGI
[19] = Metabolic stability in dog liver microsomes assessed as intrinsic clearance at 10 uM preincubated for 5 mins followed by NADPH addition and measured upto 60 mins by HPLC analysis; assay type: ADME, Canis lupus familiaris, Microsome; settings: time < 65 min, read-out: CLH
PC-9 [20] = experiment: Induction of apoptosis in human PC-9 cells expressing EGFR Del19/T790M/C797S mutant assessed as late apoptotic cells at 1 uM incubated for 48 hrs by Annexin V-FITC/PI staining based flow cytometric analysis (reference value: 0.040 %); assay type: functional
NCI-H1975 = experiment: cells; settings: Homo sapiens, NCI-H1975, 72 h
Description: Cytotoxicity against human NCI-H1975 cells expressing EGFR L858R/T790M mutant assessed as inhibition of cell proliferation incubated for 72 hrs by CCK8 assay

PC-9 [21] = experiment: Induction of apoptosis in human PC-9 cells expressing EGFR L858R/T790M/C797S mutant assessed as early apoptotic cells at 0.1 uM incubated for 48 hrs by Annexin V-FITC/PI staining based flow cytometric analysis (reference value: 0.210 %); assay type: functional
PC-9 [22] = experiment: Induction of cell cycle arrest in human PC-9 cells expressing EGFR L858R/T790M/C797S mutant assessed as accumulation of cells at G0/G1 phase at low dose incubated for 24 hrs by PI staining based flow cytometric analysis; assay type: functional
PC-9 [23] = experiment: Induction of apoptosis in human PC-9 cells expressing EGFR Del19/T790M/C797S mutant assessed as viable cells at 0.1 uM incubated for 48 hrs by Annexin V-FITC/PI staining based flow cytometric analysis (reference value: 99.8 %); assay type: functional; settings: read-out: Activity
PC-9 [24] = experiment: Induction of apoptosis in human PC-9 cells expressing EGFR Del19/T790M/C797S mutant assessed as early apoptotic cells at 1 uM incubated for 48 hrs by Annexin V-FITC/PI staining based flow cytometric analysis (reference value: 0.050 %); assay type: functional
PC-9 [25] = experiment: Induction of apoptosis in human PC-9 cells expressing EGFR Del19/T790M/C797S mutant assessed as necrotic cells at 0.1 uM incubated for 48 hrs by Annexin V-FITC/PI staining based flow cytometric analysis (reference value: 0.090 %); assay type: functional
PC-9 [26] = experiment: Induction of cell cycle arrest in human PC-9 cells expressing EGFR L858R/T790M/C797S mutant assessed as accumulation of cells at G2/M phase at 1 uM incubated for 24 hrs by PI staining based flow cytometric analysis; assay type: functional

- pIC50 (MCF7): 5.44
- pIC50 (PC-9 [8]): 6.70
- microsomal CLint at 10 µM [9]: 20 µL/min/mg
- pIC50 (HCC827): 6.97
- pIC50 (PC-9 [12]): 6.84
- microsomal CLint at 10 µM [17]: 32.7 µL/min/mg
- microsomal CLint at 10 µM [19]: 18 µL/min/mg
- pIC50 (NCI-H1975): 6.97
Compound: C=CC(=O)Nc1cc(Nc2ncc(F)c(-c3ccc4cc(C(=O)NC)n(C(C)C)c4c3)n2)ccc1N1CCN(C)CC1
- inhibition in vivo at 20 mg/kg (PC-9 [1]): 58.4%
- Activity (PC-9 [2]): 15.9%
- Activity (PC-9 [3]): 0.31 g
- Activity (PC-9 [4]): 4.19%
- Activity (PC-9 [5]): 3.32%
- viability at 0.1 µM (PC-9 [6]): 84.9%
- Activity (PC-9 [7]): 0.91%
- Activity (PC-9 [10]): 1.77%
- Activity (PC-9 [11]): 4.02%
- Activity (PC-9 [13]): 5.84%
- Activity [14]: Non-Toxic
- Activity (PC-9 [15]): Active
- viability at 1 µM (PC-9 [16]): 79.1%
- inhibition in vivo at 10 mg/kg (PC-9 [18]): 48.7%
- Activity (PC-9 [20]): 8.3%
- Activity (PC-9 [21]): 2.03%
- Activity (PC-9 [22]): Active
- viability at 0.1 µM (PC-9 [23]): 85.8%
- Activity (PC-9 [24]): 11.6%
- Activity (PC-9 [25]): 3.55%
- Activity (PC-9 [26]): Active
